Experimental data taken from paper PMC3871574, “Genes Involved in Degradation of para-Nitrophenol Are Differentially Arranged in Form of Non-Contiguous Gene Clusters in Burkholderia sp. strain SJ98” (PLoS ONE, 2013).
Read-outs that look alike come from different tables or passages of the source.

Test system: PnpA (His-6-PnpA; p-nitrophenol 4-monooxygenase, PnpM)
Experiment: spectrophotometric monooxygenase assay, Michaelis-Menten
Assay type: biochemical, Burkholderia sp. SJ98
From the text: spectrophotometric monooxygenase assay, Michaelis-Menten on PnpA (His-6-PnpA; p-nitrophenol 4-monooxygenase, PnpM)

SMILES	Km [µM]	Km (fixed NADH, 0.02 mM FAD, 50 mM phosphate pH 7.4, PNP 12.5-250 µM) [µM]
NC(=O)C1=CN([C@@H]2O[C@H](COP(=O)(O)OP(=O)(O)OC[C@H]3O[C@@H](n4cnc5c(N)ncnc54)[C@H](O)[C@@H]3O)[C@@H](O)[C@H]2O)C=CC1 [NADH]	96 ± 7.74	
O=[N+]([O-])c1ccc(O)cc1 [PNP, p-nitrophenol]		35.4 ± 5.95
